Measurements taken from PMC4222603, “Dual inhibition of HIV-1 replication by integrase-LEDGF allosteric inhibitors is predominant at the post-integration stage” (Retrovirology, 2013).

Target: T1, IN-CCD/LEDGF-IBD interaction (Human immunodeficiency virus type 1 group M subtype B, UniProt P12497, F1332K)
T1 construct: cloning the integrase region (residues 50 to 202, encoding the catalytic core domain); made in house
Experiment: HTRF-based CCD-IBD interaction assay
Type: binding, HIV-1
Details: Table 1
From the text: All HTRF® conjugated monoclonal antibodies were purchased from Cisbio Bioassays.

Compound | IC50
CC(C)(C)OC(C(=O)O)C1=C(c2ccc3c(c2)CCCO3)c2ccccc2OC1 (stereo not drawn) [Mut062, 2-(tert-butoxy)-2-[4-(3,4-dihydro-2H-1-benzopyran-6-yl)-2H-chromen-3-yl]acetic acid] | 2.7 µM
CC(C)(C)OC(C(=O)O)c1ccc(Oc2ccccc2)cc1-c1ccc2c(c1)CCCO2 (stereo not drawn) [Mut063, 2-(tert-butoxy)-2-[2-(3,4-dihydro-2H-1-benzopyran-6-yl)-4-phenoxyphenyl]acetic acid] | > 100 µM
Cc1nc2c(c(-c3ccccc3)c1C(OC(C)(C)C)C(=O)O)CCCC2 (stereo not drawn) [Mut075, 2-(tert-butoxy)-2-(2-methyl-4-phenyl-5,6,7,8-tetrahydro-quinolin-3-yl)acetic acid] | 14 µM

Target: IN-LEDGF/p75 interaction (Human immunodeficiency virus type 1 group M subtype B, UniProt P12497)
Experiment: biochemical
Details: IN-LEDGF IC50, Table 1; HTRF, full length proteins
Description: IN-LEDGF HTRF® assay was performed in 384-well low volume black polystyrene plates (Corning) using IN-LEDGF assay buffer (25 mM Tris–HCl pH 7.4, 150 mM NaCl, 2 mM MgCl2, 0.4 M KF, 0.1% Igepal CA-630, 0.1% bovine serum albumin, 1 mM DTT). […] The HTRF ratio was converted to % inhibition and analyzed by fitting a sigmoidal dose–response equation with Hill slope to determine the IC50 of the compound.

Compound | IC50
CC(C)(C)OC(C(=O)O)C1=C(c2ccc3c(c2)CCCO3)c2ccccc2OC1 (stereo not drawn) [Mut062, 2-(tert-butoxy)-2-[4-(3,4-dihydro-2H-1-benzopyran-6-yl)-2H-chromen-3-yl]acetic acid] | 3.1 µM
CC(C)(C)OC(C(=O)O)c1ccc(Oc2ccccc2)cc1-c1ccc2c(c1)CCCO2 (stereo not drawn) [Mut063, 2-(tert-butoxy)-2-[2-(3,4-dihydro-2H-1-benzopyran-6-yl)-4-phenoxyphenyl]acetic acid] | > 100 µM
Cc1nc2c(c(-c3ccccc3)c1C(OC(C)(C)C)C(=O)O)CCCC2 (stereo not drawn) [Mut075, 2-(tert-butoxy)-2-(2-methyl-4-phenyl-5,6,7,8-tetrahydro-quinolin-3-yl)acetic acid] | 4 µM

Target: T2, IN strand transfer activity (Human immunodeficiency virus type 1 group M subtype B, UniProt P12497)
T2 construct: loaded on a Superdex 200 16/600 PG column (for full length IN); made in house
Experiment: IN strand transfer ELISA assay
Type: biochemical, HIV-1
Details: Table 1; ELISA; read-out: IN ST IC50
Description: IN strand transfer ELISA assay has been adapted from. […] 16 μL of IN mixture (20 mM HEPES pH 7.5, 10 mM MgCl2, 1 mM DTT, 0.50 μM His6-IN) was added. […] The reaction was stopped by addition of 60 μL stop mixture (20 mM Tris–HCl pH 7.6, 0.4 M NaCl, 10 mM Na2EDTA, 0.1 mg/mL salmon sperm DNA) and the volume transferred to Reacti-Bind high-binding capacity streptavidin-coated white plates (Thermo Scientific Pierce). After 1 h incubation at room temperature under gentle shaking, integrase and unjoined DNA were removed by three washes with 200 μL wash solution 1 (30 mM NaOH, 0.2 M NaCl, 1 mM Na2EDTA). 100 μL of 2000-fold diluted HRP-conjugated anti-DIG Fab (Roche Applied Science) was added and the plate was incubated for 1 h at 37°C. Unbound antibody was removed with wash solution 2 (PBS pH 7.4, 0.05% Tween-20, 0.1% bovine serum albumin), 100 μL of SuperSignal Femto ELISA substrate (Thermo Scientific Pierce) was added and chemiluminescence was immediately read in a PHERAstar Plus with LUM-plus module. The signal, converted to % inhibition, was analyzed by fitting a sigmoidal dose–response curve to determine IC50 and the inhibition plateau.

Compound | IC50
CC(C)(C)OC(C(=O)O)C1=C(c2ccc3c(c2)CCCO3)c2ccccc2OC1 (stereo not drawn) [Mut062, 2-(tert-butoxy)-2-[4-(3,4-dihydro-2H-1-benzopyran-6-yl)-2H-chromen-3-yl]acetic acid] | 0.54 µM
CC(C)(C)OC(C(=O)O)c1ccc(Oc2ccccc2)cc1-c1ccc2c(c1)CCCO2 (stereo not drawn) [Mut063, 2-(tert-butoxy)-2-[2-(3,4-dihydro-2H-1-benzopyran-6-yl)-4-phenoxyphenyl]acetic acid] | > 100 µM

Same assay, conditions: inhibition plateau, concentrations up to 100 μM

Compound | IN ST plateau (%)
CC(C)(C)OC(C(=O)O)C1=C(c2ccc3c(c2)CCCO3)c2ccccc2OC1 (stereo not drawn) [Mut062, 2-(tert-butoxy)-2-[4-(3,4-dihydro-2H-1-benzopyran-6-yl)-2H-chromen-3-yl]acetic acid] | 73%

System: HIV-1 NL4-3
Experiment: Antiviral assay in MT-4 cells, multiple-round infection, CellTiter-Glo
Type: cell-based
Details: Human immunodeficiency virus 1, NL43, MT4, read-out: EC50 NL4-3 WT
Description: MT-4 cells growing exponentially at the density of 10^6/mL were infected with HIV-1 strain NL4-3 at a MOI (multiplicity of infection) of 0.001 for 2 h. The cells were washed with PBS and aliquoted, using 100 μL fresh complete RPMI, into 96-well white plates (Corning) in the presence of different concentrations of compounds.

Compound | EC50
Cc1nnc(C(=O)NC(C)(C)c2nc(C(=O)NCc3ccc(F)cc3)c(O)c(=O)n2C)o1 [RAL, Raltegravir, reference compound] | 0.007 µM

Same assay, conditions: Human immunodeficiency virus 1, NL43, MT4, read-out: NL4-3 EC50 Multiple-round

Compound | EC50
Cc1nnc(C(=O)NC(C)(C)c2nc(C(=O)NCc3ccc(F)cc3)c(O)c(=O)n2C)o1 [RAL, Raltegravir, reference compound] | 0.0024 ± 0.0006 µM

Same assay, conditions: Human immunodeficiency virus 1, NL43, MT4; Table 1; read-out: NL4-3 EC50 (MT4 assays)

Compound | EC50
CC(C)(C)OC(C(=O)O)C1=C(c2ccc3c(c2)CCCO3)c2ccccc2OC1 (stereo not drawn) [Mut062, 2-(tert-butoxy)-2-[4-(3,4-dihydro-2H-1-benzopyran-6-yl)-2H-chromen-3-yl]acetic acid] | 3.3 µM
CC(C)(C)OC(C(=O)O)c1ccc(Oc2ccccc2)cc1-c1ccc2c(c1)CCCO2 (stereo not drawn) [Mut063, 2-(tert-butoxy)-2-[2-(3,4-dihydro-2H-1-benzopyran-6-yl)-4-phenoxyphenyl]acetic acid] | > 50 µM
Cc1nc2c(c(-c3ccccc3)c1C(OC(C)(C)C)C(=O)O)CCCC2 (stereo not drawn) [Mut075, 2-(tert-butoxy)-2-(2-methyl-4-phenyl-5,6,7,8-tetrahydro-quinolin-3-yl)acetic acid] | 3.4 µM

Same assay, conditions: Human immunodeficiency virus 1, NL43; MT4 cells; mean of six independent experiments; read-out: NL4-3 EC50 Multiple-round

Compound | EC50
CC(C)(C)OC(C(=O)O)C1=C(c2ccc3c(c2)CCCO3)c2ccccc2OC1 (stereo not drawn) [Mut062, 2-(tert-butoxy)-2-[4-(3,4-dihydro-2H-1-benzopyran-6-yl)-2H-chromen-3-yl]acetic acid] | 3.3 ± 1.5 µM
Cc1nc2c(c(-c3ccccc3)c1C(OC(C)(C)C)C(=O)O)CCCC2 (stereo not drawn) [Mut075, 2-(tert-butoxy)-2-(2-methyl-4-phenyl-5,6,7,8-tetrahydro-quinolin-3-yl)acetic acid] | 3.4 ± 1 µM

System: HxB2 HIV-1
Experiment: Antiviral assay in MT4 cells infected with HxB2
Type: cell-based
Details: Human immunodeficiency virus 1, HXB2, MT4; Table 1; read-out: HxB2 EC50 (MT4 assays)

Compound | EC50
CC(C)(C)OC(C(=O)O)C1=C(c2ccc3c(c2)CCCO3)c2ccccc2OC1 (stereo not drawn) [Mut062, 2-(tert-butoxy)-2-[4-(3,4-dihydro-2H-1-benzopyran-6-yl)-2H-chromen-3-yl]acetic acid] | 1.3 µM
Cc1nc2c(c(-c3ccccc3)c1C(OC(C)(C)C)C(=O)O)CCCC2 (stereo not drawn) [Mut075, 2-(tert-butoxy)-2-(2-methyl-4-phenyl-5,6,7,8-tetrahydro-quinolin-3-yl)acetic acid] | 1 µM

System: not listed separately
Experiment: in vitro
Type: cell-based
Details: human
Description: Growth inhibition was monitored in a proliferating human T-cell line (MT-4) with different concentrations of compounds. ATP levels were quantified using the CellTiter-Glo® luminescent reagent (Promega) to measure the ability of a compound to inhibit cell growth, an indication of the compound’s cytotoxicity. Cytotoxicity was evaluated at either day 2 or day 5.

Compound | CC50
CC(C)(C)OC(C(=O)O)C1=C(c2ccc3c(c2)CCCO3)c2ccccc2OC1 (stereo not drawn) [Mut062, 2-(tert-butoxy)-2-[4-(3,4-dihydro-2H-1-benzopyran-6-yl)-2H-chromen-3-yl]acetic acid] | > 50 µM
CC(C)(C)OC(C(=O)O)c1ccc(Oc2ccccc2)cc1-c1ccc2c(c1)CCCO2 (stereo not drawn) [Mut063, 2-(tert-butoxy)-2-[2-(3,4-dihydro-2H-1-benzopyran-6-yl)-4-phenoxyphenyl]acetic acid] | > 50 µM
Cc1nc2c(c(-c3ccccc3)c1C(OC(C)(C)C)C(=O)O)CCCC2 (stereo not drawn) [Mut075, 2-(tert-butoxy)-2-(2-methyl-4-phenyl-5,6,7,8-tetrahydro-quinolin-3-yl)acetic acid] | > 50 µM

System: VSV-G-pseudotyped NL4-3Δenv-luc
Experiment: microbe, parasite or virus in culture
Type: cell-based, HIV-1
Details: not given

Compound | Inhibition in single-round infection assay | SR/MR ratio
CC(C)(C)OC(C(=O)O)C1=C(c2ccc3c(c2)CCCO3)c2ccccc2OC1 (stereo not drawn) [Mut062, 2-(tert-butoxy)-2-[4-(3,4-dihydro-2H-1-benzopyran-6-yl)-2H-chromen-3-yl]acetic acid] | 30% @50 | >25
Cc1nc2c(c(-c3ccccc3)c1C(OC(C)(C)C)C(=O)O)CCCC2 (stereo not drawn) [Mut075, 2-(tert-butoxy)-2-(2-methyl-4-phenyl-5,6,7,8-tetrahydro-quinolin-3-yl)acetic acid] | 23% @50 | >25

Same assay, conditions: Human immunodeficiency virus 1, NL43, MT4, read-out: NL4-3 EC50 Single-round

Compound | EC50
Cc1nnc(C(=O)NC(C)(C)c2nc(C(=O)NCc3ccc(F)cc3)c(O)c(=O)n2C)o1 [RAL, Raltegravir, reference compound] | 0.0025 ± 0.0003 µM

System: HIV-1 LAV virions produced by HeLa-LAV cells
Experiment: Virions produced by compound-treated HeLa-LAV cells: p24 and infectivity
Type: cell-based
Details: luciferase assay in TZM cells

Compound | Infectivity of virions from treated HeLa-LAV cells
CC(C)(C)OC(C(=O)O)c1ccc(Oc2ccccc2)cc1-c1ccc2c(c1)CCCO2 (stereo not drawn) [Mut063, 2-(tert-butoxy)-2-[2-(3,4-dihydro-2H-1-benzopyran-6-yl)-4-phenoxyphenyl]acetic acid] | no infectivity defect
Cc1nnc(C(=O)NC(C)(C)c2nc(C(=O)NCc3ccc(F)cc3)c(O)c(=O)n2C)o1 [RAL, Raltegravir, reference compound] | no infectivity defect

System: HIV-1 NL4-3 wt
Experiment: not given
Type: cell-based
Details: HEK293T transfection, MT4 infection, CellTiter-Glo

Compound | Infectivity of NL4-3 wt virus produced in presence of compound
Cc1nnc(C(=O)NC(C)(C)c2nc(C(=O)NCc3ccc(F)cc3)c(O)c(=O)n2C)o1 [RAL, Raltegravir, reference compound] | no effect

System: NL4-3 IN T174I mutant virus
Experiment: not given
Type: cell-based, HIV-1
Details: HEK293T transfection, MT4 infection, CellTiter-Glo

Compound | Infectivity of NL4-3 IN T174I virus produced in presence of compound
Cc1nnc(C(=O)NC(C)(C)c2nc(C(=O)NCc3ccc(F)cc3)c(O)c(=O)n2C)o1 [RAL, Raltegravir, reference compound] | no effect
